Assay results from patent US9963434B2, “N-arylmethyl sulfonamide negative modulators of NR2A” (LUC THERAPEUTICS, priority 2013, dated 2018).
Like-named read-outs stand apart in the source and are kept apart here.

Molecular target: NR1/NR2A (Homo sapiens (Human), UniProt Q05586+Q12879)
Test: FDSS Ca2+ influx inhibition assay in HEK293 cells expressing NR1/NR2A
Type: cell-based
Conditions: 3 μM glutamate, 3 μM glycine, 1 mM Ca2+
Procedure, shortened: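 Fluo-8-loaded HEK293 NR1/NR2A cells preincubated 10 min with compound at 10 μM final (0.1% DMSO) in Ca2+/Mg2+-free HBSS with 20 mM HEPES. Stimulated with 3 μM glutamate, 3 μM glycine, 1 mM Ca2+; FDSS recording for 3 min, end/baseline fluorescence ratio compared with MK801.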

[1] = inhibition relative to MK801, read-out: NR2A IC50

Chain of NR1/NR2A (Q12879 23-1464, other chains not shown): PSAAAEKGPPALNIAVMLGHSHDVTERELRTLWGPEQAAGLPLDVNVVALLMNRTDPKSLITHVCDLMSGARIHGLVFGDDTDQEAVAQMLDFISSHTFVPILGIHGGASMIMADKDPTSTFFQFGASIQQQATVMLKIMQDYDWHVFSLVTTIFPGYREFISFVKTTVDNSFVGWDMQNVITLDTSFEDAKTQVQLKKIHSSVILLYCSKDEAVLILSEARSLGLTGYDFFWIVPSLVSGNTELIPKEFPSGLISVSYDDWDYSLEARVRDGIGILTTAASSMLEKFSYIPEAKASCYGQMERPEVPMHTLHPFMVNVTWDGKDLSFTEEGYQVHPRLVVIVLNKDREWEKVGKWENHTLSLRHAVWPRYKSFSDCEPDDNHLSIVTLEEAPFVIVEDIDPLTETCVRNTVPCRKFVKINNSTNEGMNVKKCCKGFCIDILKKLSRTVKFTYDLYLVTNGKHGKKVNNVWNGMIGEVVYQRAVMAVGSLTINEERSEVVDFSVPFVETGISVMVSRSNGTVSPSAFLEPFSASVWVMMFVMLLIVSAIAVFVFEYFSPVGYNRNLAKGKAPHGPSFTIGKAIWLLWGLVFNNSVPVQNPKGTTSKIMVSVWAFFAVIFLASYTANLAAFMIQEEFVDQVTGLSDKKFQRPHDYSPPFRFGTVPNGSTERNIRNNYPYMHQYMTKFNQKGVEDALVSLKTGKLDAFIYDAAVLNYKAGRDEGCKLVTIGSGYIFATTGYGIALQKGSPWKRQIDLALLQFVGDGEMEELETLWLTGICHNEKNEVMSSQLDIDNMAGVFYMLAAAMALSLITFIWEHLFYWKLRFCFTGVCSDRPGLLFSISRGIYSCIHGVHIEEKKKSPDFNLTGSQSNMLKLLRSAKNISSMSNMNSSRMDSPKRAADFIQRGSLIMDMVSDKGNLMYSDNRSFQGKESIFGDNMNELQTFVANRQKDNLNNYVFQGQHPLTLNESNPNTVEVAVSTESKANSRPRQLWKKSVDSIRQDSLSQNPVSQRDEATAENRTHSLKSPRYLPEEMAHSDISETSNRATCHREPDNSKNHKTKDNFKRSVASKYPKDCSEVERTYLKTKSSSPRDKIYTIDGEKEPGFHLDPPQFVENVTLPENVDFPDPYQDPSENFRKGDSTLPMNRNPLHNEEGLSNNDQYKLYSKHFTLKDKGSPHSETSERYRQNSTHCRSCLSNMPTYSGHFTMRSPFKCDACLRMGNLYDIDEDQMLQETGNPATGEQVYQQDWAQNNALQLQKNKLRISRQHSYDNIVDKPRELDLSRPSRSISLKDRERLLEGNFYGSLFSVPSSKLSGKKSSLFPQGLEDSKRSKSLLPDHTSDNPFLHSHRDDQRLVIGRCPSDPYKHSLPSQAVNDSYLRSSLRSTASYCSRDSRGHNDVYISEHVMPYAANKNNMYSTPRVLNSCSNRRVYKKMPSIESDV

| SMILES | IC50 (read-out: Binned Activity) [µM] | IC50 [1] [µM] |
| --- | --- | --- |
| COc1cc(CNC(=O)c2ccc(CNS(=O)(=O)c3ccc(F)c(Cl)c3)cn2)ccn1 [5-(3-chloro-4-fluorobenzenesulfon-amidomethyl)-N-[(2-methoxypyridin-4-yl)methyl]pyridine-2-carboxamide] | 1 to 10 |  |
| Cc1nc(CNC(=O)c2cnc(CNS(=O)(=O)c3ccc(F)c(Cl)c3)cn2)cs1 [5-(3-chloro-4-fluorobenzenesulfon-amidomethyl)-N-[(2-methyl-1,3-thiazol-4-yl)methyl]pyrazine-2-carboxamide] | > 10 | 10 |
| Cc1nc(CNC(=O)c2ccc(CNS(=O)(=O)c3ccc(F)c(Cl)c3)cn2)cs1 [5-(3-chloro-4-fluorobenzenesulfon-amidomethyl)-N-[(2-methyl-1,3-thiazol-4-yl)methyl]pyridine-2-carboxamide] | > 10 | 10 |
| Cc1ncc(CNC(=O)c2cnc(CNS(=O)(=O)c3ccc(F)c(Cl)c3)c(C(F)(F)F)n2)s1 [5-(3-chloro-4-fluorobenzenesulfon-amidomethyl)-N-[(2-methyl-1,3-thiazol-5-yl)methyl]-6-(trifluoromethyl)pyrazine-2-carboxamide] | 0.1 to 1 |  |
| Cc1ncc(CNC(=O)c2ccc(CNS(=O)(=O)c3ccc(F)c(Cl)c3)cn2)s1 [5-(3-chloro-4-fluorobenzenesulfon-amidomethyl)-N-[(2-methyl-1,3-thiazol-5-yl)methyl]pyridine-2-carboxamide] | 0.1 to 1 |  |
| Cc1ncc(CNC(=O)c2ncc(CNS(=O)(=O)c3ccc(F)c(Cl)c3)cn2)s1 [5-(3-chloro-4-fluorobenzenesulfon-amidomethyl)-N-[(2-methyl-1,3-thiazol-5-yl)methyl]pyrimidine-2-carboxamide] | > 10 | 10 |
| COc1ccc(CNC(=O)c2cnc(CNS(=O)(=O)c3ccc(F)c(Cl)c3)cn2)cc1 [5-(3-chloro-4-fluorobenzenesulfon-amidomethyl)-N-[(4-methoxyphenyl)methyl] pyrazine-2-carboxamide] | > 10 | 10 |
| COc1ccc(CNC(=O)c2ccc(CNS(=O)(=O)c3ccc(F)c(Cl)c3)cn2)cc1 [5-(3-chloro-4-fluorobenzenesulfon-amidomethyl)-N-[(4-methoxyphenyl)methyl] pyridine-2-carboxamide] | > 10 | 10 |
| Cc1csc(CNC(=O)c2cnc(CNS(=O)(=O)c3ccc(F)c(Cl)c3)cn2)n1 [5-(3-chloro-4-fluorobenzenesulfon-amidomethyl)-N-[(4-methyl-1,3-thiazol-2-yl)methyl]pyrazine-2-carboxamide] |  | 10 |
| Cc1csc(CNC(=O)c2ccc(CNS(=O)(=O)c3ccc(F)c(Cl)c3)cn2)n1 [5-(3-chloro-4-fluorobenzenesulfon-amidomethyl)-N-[(4-methyl-1,3-thiazol-2-yl)methyl]pyridine-2-carboxamide] | > 10 | 10 |
| Cc1ncsc1CNC(=O)c1cnc(CNS(=O)(=O)c2ccc(F)c(Cl)c2)cn1 [5-(3-chloro-4-fluorobenzenesulfon-amidomethyl)-N-[(4-methyl-1,3-thiazol-5-yl)methyl]pyrazine-2-carboxamide] | > 10 | 10 |
| Cc1ncsc1CNC(=O)c1ccc(CNS(=O)(=O)c2ccc(F)c(Cl)c2)cn1 [5-(3-chloro-4-fluorobenzenesulfon-amidomethyl)-N-[(4-methyl-1,3-thiazol-5-yl)methyl]pyridine-2-carboxamide] | > 10 | 10 |
| Cc1ccncc1CNC(=O)c1cnc(CNS(=O)(=O)c2ccc(F)c(Cl)c2)cn1 [5-(3-chloro-4-fluorobenzenesulfon-amidomethyl)-N-[(4-methylpyridin-3-yl)methyl]pyrazine-2-carboxamide] | 0.1 to 1 |  |
| Cc1ccncc1CNC(=O)c1ccc(CNS(=O)(=O)c2ccc(F)c(Cl)c2)cn1 [5-(3-chloro-4-fluorobenzenesulfon-amidomethyl)-N-[(4-methylpyridin-3-yl)methyl]pyridine-2-carboxamide] | 0.1 to 1 |  |
| O=C(NCc1cncc(F)c1)c1cnc(CNS(=O)(=O)c2ccc(F)c(Cl)c2)cn1 [5-(3-chloro-4-fluorobenzenesulfon-amidomethyl)-N-[(5-fluoropyridin-3-yl)methyl]pyrazine-2-carboxamide] | 1 to 10 |  |
| Cc1nnc(CNC(=O)c2cnc(CNS(=O)(=O)c3ccc(F)c(Cl)c3)cn2)o1 [5-(3-chloro-4-fluorobenzenesulfon-amidomethyl)-N-[(5-methyl-1,3,4-oxadiazol-2-yl)methyl]pyrazine-2-carboxamide] | 1 to 10 |  |
| Cc1nnc(CNC(=O)c2ccc(CNS(=O)(=O)c3ccc(F)c(Cl)c3)cn2)o1 [5-(3-chloro-4-fluorobenzenesulfon-amidomethyl)-N-[(5-methyl-1,3,4-oxadiazol-2-yl)methyl]pyridine-2-carboxamide] | 1 to 10 |  |
| Cc1nnc(CNC(=O)c2cnc(CNS(=O)(=O)c3ccc(F)c(Cl)c3)cn2)s1 [5-(3-chloro-4-fluorobenzenesulfon-amidomethyl)-N-[(5-methyl-1,3,4-thiadiazol-2-yl)methyl]pyrazine-2-carboxamide] | 0.1 to 1 |  |
| Cc1nnc(CNC(=O)c2ccc(CNS(=O)(=O)c3ccc(F)c(Cl)c3)cn2)s1 [5-(3-chloro-4-fluorobenzenesulfon-amidomethyl)-N-[(5-methyl-1,3,4-thiadiazol-2-yl)methyl]pyridine-2-carboxamide] | 1 to 10 |  |
| Cc1cnc(CNC(=O)c2cnc(CNS(=O)(=O)c3ccc(F)c(Cl)c3)cn2)cn1 [5-(3-chloro-4-fluorobenzenesulfon-amidomethyl)-N-[(5-methylpyrazin-2-yl)methyl]pyrazine-2-carboxamide] | 1 to 10 |  |
| Cc1ccc(CNC(=O)c2cnc(CNS(=O)(=O)c3ccc(F)c(Cl)c3)cn2)s1 [5-(3-chloro-4-fluorobenzenesulfon-amidomethyl)-N-[(5-methylthiophen-2-yl)methyl]pyrazine-2-carboxamide] | > 10 | 10 |
| Cc1ccc(CNC(=O)c2ccc(CNS(=O)(=O)c3ccc(F)c(Cl)c3)cn2)s1 [5-(3-chloro-4-fluorobenzenesulfon-amidomethyl)-N-[(5-methylthiophen-2-yl)methyl]pyridine-2-carboxamide] | > 10 | 10 |
| COc1ccc(CNC(=O)c2cnc(CNS(=O)(=O)c3ccc(F)c(Cl)c3)cn2)cn1 [5-(3-chloro-4-fluorobenzenesulfon-amidomethyl)-N-[(6-methoxypyridin-3-yl)methyl]pyrazine-2-carboxamide] | > 10 | 10 |
| COc1ccc(CNC(=O)c2ccc(CNS(=O)(=O)c3ccc(F)c(Cl)c3)cn2)cn1 [5-(3-chloro-4-fluorobenzenesulfon-amidomethyl)-N-[(6-methoxypyridin-3-yl)methyl]pyridine-2-carboxamide] | 1 to 10 |  |
| Cc1cccc(CNC(=O)c2cnc(CNS(=O)(=O)c3ccc(F)c(Cl)c3)cn2)n1 [5-(3-chloro-4-fluorobenzenesulfon-amidomethyl)-N-[(6-methylpyridin-2-yl)methyl]pyrazine-2-carboxamide] | > 10 | 10 |
| Cc1cccc(CNC(=O)c2ccc(CNS(=O)(=O)c3ccc(F)c(Cl)c3)cn2)n1 [5-(3-chloro-4-fluorobenzenesulfon-amidomethyl)-N-[(6-methylpyridin-2-yl)methyl]pyridine-2-carboxamide] | > 10 | 10 |
